Experimental data taken from patent publication US8222210B2 (priority 2005, dated 2012).

Assays:
NK1 receptor [1] = experiment: rabbit iris sphincter smooth muscle contraction; type: cell-based, New Zealand White rabbits; conditions: for biological activity relative to SP: rabbit iris sphincter muscle contraction
Source text: The biological assay chosen for this study was smooth muscle contraction with the rabbit iris sphincter. […] The conformational investigations involved ^1H-NMR analyses of a set of β-MeF-containing SP analogs, and a computational study of the effects that the introduction of a β-methyl group in the Phe^7 and/or Phe^8 residues has upon an energy minimized structure of the peptide, using the helical structure of SP derived by Young et al. (1994) as a starting point for the calculations.
New Zealand White rabbits were sacrificed by an i.v. overdose of sodium pentobarbital. The eyes were then enucleated and the iris/ciliary body was isolated. Central regions of the iris sphincter muscle was then isolated and the tissue bisected, producing two iris sphincter muscle preparations. The muscle strips were connected to a Grass force-displacement transducer with an initial loading force of 100 mg placed on the muscle. The tissue was then allowed to equilibrate for 60 minutes. Contractions were recorded by a Grass 7 Physiograph. Tissues were bathed at 37° C. in a 50 ml modified Ringer's solution (90 mM NaCl, 3.6 mM KCl, 20 mM HEPES (sodium salt), 0.6 mM MgCl, 7.5 mM Na2SO4, 1.4 mM Ca-gluconate, 20 mM NaHCO3, 0.6 mM MgSO4, 0.6 mM K2HPO4 and 26 mM glucose). The Ringer's solution was gassed with 95% air/5% CO2 (pH 7.4). […] To block potential proteolytic effects the following proteolysis inhibitors were added: 1 μM thiorphan, 1 μM phosphoramidon, 1 μM captopril, 3 μg/ml leupeptin, and 3 μg/ml chymostatin.
To evaluate the viability of each muscle preparation, maximum contraction was determined by a 10^−5 M dose of carbachol at the beginning and end of each experiment. Following the initial carbachol dose, tissues were washed by three exchanges of Ringer's solutions. Previous studies have shown that this is sufficient to remove carbachol from these solutions and to return the resting tension to normal values. Each peptide was then evaluated for its ability to induce sphincter muscle contraction, and dose-response curves (from 2×10^−11 to 7×10^−7 M) were determined. A minimum of four determinations were performed for each experimental condition. The dose response curves were fit by means of a nonlinear regression analysis program (Sigma Plot®, Jandel Scientific).
Therefore, since the binding of SP to the NK1 and NK3 receptors in the rabbit iris differs by a factor of over 20, it is reasonable to assume that the contraction of the rabbit iris sphincter by βMeF-containing SP analogs primarily reflect the activation of the NK1 receptor.

[2] = tested on: full thickness skin punch wounds; experiment: full thickness skin punch wound healing in a rat model (topical, AQUAPHOR); type: in vivo, Sprague-Dawley rats; conditions: for percentage decrease of the wound area versus control wounds (paired T-test): SP p<0.025, selenocystamine at the 0.05 level; for % decrease in wound size (wound area day 6 compared with day 0): rat punch wound, topical once a day, SP 0.05%, selenocystamine 10 ug Se/ml
Procedure: In addition, selenocystamine was tested as a potential wound treatment at the same time.
Twenty-one male Sprague-Dawley rats weighing between 300-350 g were used in this study. The rats were housed in the temperature controlled vivarium at Texas Tech Health Science Center with a 12-hour alternating light cycle, and were provided water and rat chow ad libitum. Animals were allowed several days of adjustment upon arrival before the surgery to get rehydrated and familiar with the environment. The study protocol was approved by the Texas Tech University Health Sciences Center Animal Care and Use Committee which assured that the animals received humane care.
On the day of the surgery (day 0), the rats were weighed and anesthetized with 1 ml/kg intraperitoneal (IP) injection of the solution made up of 3 parts XYLAZINE® and 7 parts of KETASET®. The animals' backs and necks were shaved and prepared aseptically. Lack of response to tail pinch and absence of a righting reflex were used as indications that anesthesia was adequate. Supplemental anesthetic was administered IP as necessary to maintain an adequate anesthesia.
A 7 mm-diameter punch (George Tiemann & Co.) was used to introduce the punch wound. The procedure was to fold the skin along the sagittal axis and put it down left or right side (rotate animal by animal) against a hard surface, then to thrust the punch through the two layers of skin. In this way, two identical punch wounds were obtained. Four wounds were introduced on each animal. The four wounds were arranged in two columns parallel to the sagittal axis and two rows parallel to the transverse axis.
After the wound procedure, three different treatments were assigned to the wounds. […] The two under were assigned selenocystamine treatment. For the control wound, a drop of normal saline was applied followed by a layer of AQUAPHOR™ to cover the wound. For the SP wound, a drop of 0.05% (0.5 mg/ml) SP water solution was applied followed by a layer of 0.05% (0.5 mg/g) SP-AQUAPHOR™ to cover the wound. For the selenocystamine wounds, a drop of selenocystamine water solution (10 ug Se/ml) was applied to each wound followed by a layer of selenocystamine-AQUAPHOR™ ([…]) to cover the wound. Then gauze and tape were applied to secure the wound. The animals were held under warming lights and observed until they were fully recovered from the anesthesia and then were returned to the vivarium. All the treatment agents and placebo were stored in a refrigerator. Dressing changes and treatments were performed once a day until the animals were sacrificed on day 6. The assignments and dosage of the treatments were as described above.
Following the surgery, the wounds were measured in two dimensions: sagittal and transverse. Photographs were taken using a PENTAX® ESPIO 928 camera and Kodak® ISO 200 color film. After the animals were sacrificed on day 6, the eschars covering the wounds were removed. Then the wounds were again measured in two dimensions, and photographs were taken.
The animals were sacrificed on day 6 after the surgery by euthanasia with […]® (Sodium Pentobarbital, 7.9% isopropanol, euthanasia solution). The entire wound plus a 1 mm margin of normal skin from each of the test and control wound sites on each animal was excised and preserved in buffered formalin.
The product obtained by multiplying the two measurements of each wound was referred to as the area of the wound. The percentage of the decrease of the wound area on day 6 compared with day 0 was used to evaluate the rate of healing. Since the exact time of wound healing was difficult to determine, day 6 was chosen.
Mean and standard deviations were determined on the difference of the percentage of the wound area decrease between each treatment and the control. Significant differences between treatments and the control were determined by paired T-test to see if the percentage of the decrease in wound area was greater for the treated wounds than for the control wound. […]

cellular growth = cellular growth promoting activity (description); type: cell-based
NK1 receptor [3] = biological target: NK1 receptor (Homo sapiens, UniProt P25103); conditions: cited from earlier work
full thickness wound = experiment: full thickness 7 mm punch wound in the back of rats, hyaluronic acid vehicle (FIG. 10); type: in vivo; conditions: after 6 days, 16 rats, both wounds received hyaluronic acid vehicle
Source text: FIG. 10 represents the percent healing after 6 days for a full thickness wound in the back of 16 different rats. The initial wound size was a 7 mm punch wound. Each rat received two wounds, a control (no SP) and an SP treated wound. Both wounds received a hyaluronic acid vehicle.
Supplemental growth factors have the ability to accelerate wound healing in a variety of experimental animal models (EE). This has even led to clinical trials. However, the human studies have not been as successful as the animal models. Due to the complexity of the interaction of different growth factors, it is likely that the right combination of different growth factors has not been explored.

NK1 and NK3 receptors = conditions: rabbit iris; cited from earlier work

Chain of NK1 receptor (Homo sapiens, UniProt P25103) (P25103 whole entry, species assumed): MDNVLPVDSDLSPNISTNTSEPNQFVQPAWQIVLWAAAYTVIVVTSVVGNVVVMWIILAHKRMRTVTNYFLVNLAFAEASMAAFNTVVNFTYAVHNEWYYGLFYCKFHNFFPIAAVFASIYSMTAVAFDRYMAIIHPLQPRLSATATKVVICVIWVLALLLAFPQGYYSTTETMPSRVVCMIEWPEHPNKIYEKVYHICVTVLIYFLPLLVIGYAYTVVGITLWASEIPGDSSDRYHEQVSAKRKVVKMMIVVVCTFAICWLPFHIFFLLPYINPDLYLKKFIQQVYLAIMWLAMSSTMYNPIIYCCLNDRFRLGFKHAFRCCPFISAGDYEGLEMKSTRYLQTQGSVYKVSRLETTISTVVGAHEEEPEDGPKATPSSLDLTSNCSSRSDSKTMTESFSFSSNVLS

Molecule: 7R,8R-(βMeF)2SP: Substance P analog with R-β-methylphenylalanine at positions 7 and 8
- biological activity relative to SP (NK1 receptor [1]): the least active analog
- biological activity relative to SP (NK1 receptor [1]; listed as 7R,8R-(β-MeF)2SP): diminish the biological activity by a factor of ten

Molecule: 7R,8S-(βMeF)2SP: Substance P analog with R-β-methylphenylalanine at position 7 and S- at position 8
- biological activity relative to SP (NK1 receptor [1]): most active disubstituted SP analogs
- biological activity relative to SP (NK1 receptor [1]; listed as 7R,8S-(β-MeF)2SP): enhance the activity

Molecule: 7R-(βMeF)SP: Substance P analog with R-β-methylphenylalanine at position 7
- biological activity relative to SP (NK1 receptor [1]): equipotent to SP

Molecule: 7S,8R-(βMeF)2SP: Substance P analog with S-β-methylphenylalanine at position 7 and R- at position 8
- biological activity relative to SP (NK1 receptor [1]): equipotent (to SP)
- biological activity relative to SP (NK1 receptor [1]; listed as 7S,8R-(β-MeF)2SP): do not significantly alter the activity

Molecule: 7S,8S-(βMeF)2SP: Substance P analog with S-β-methylphenylalanine at positions 7 and 8
- biological activity relative to SP (NK1 receptor [1]): most active disubstituted SP analogs
- biological activity relative to SP (NK1 receptor [1]; listed as 7S,8S-(β-MeF)2SP): enhance the activity

Molecule: 7S-(βMeF)SP: Substance P analog with S-β-methylphenylalanine at position 7
- biological activity relative to SP (NK1 receptor [1]): slightly more active than SP

Molecule: 8R-(βMeF)SP: Substance P analog with R-β-methylphenylalanine at position 8
- biological activity relative to SP (NK1 receptor [1]): the most active SP analog
- biological activity relative to SP (NK1 receptor [1]; listed as R-β-MeF into position 8 of SP): four-fold enhancement

Molecule: 8S-(βMeF)SP: Substance P analog with S-β-methylphenylalanine at position 8
- biological activity relative to SP (NK1 receptor [1]): the least active of the monosubstituted analogs
- biological activity relative to SP (NK1 receptor [1]; listed as S-β-MeF into position 8 of SP): ten-fold reduction

Molecule: NCC[Se][Se]CCN [selenocystamine, reference compound]
- percentage decrease of the wound area versus control wounds (paired T-test) ([2]; day 6): not significantly higher than the control
- % decrease in wound size (wound area day 6 compared with day 0) ([2]; day 6): 31.8±18.3%
- wound enlargement (one wound of the group) ([2]; six day period): 2.9%

Molecule: QFFGLM (SEQ ID NO:8) (listed as Homo sapiens) [SP6-11, reference compound]
- cellular growth promoting activity (cellular growth): active in promoting cellular growth
- activity as % of that found for the whole SP molecule (NK1 receptor [3]): 50-90%

Molecule: RPKPQQFFGLM (SEQ ID NO:1) [SP]
- percentage decrease of the wound area versus control wounds (paired T-test) ([2]; day 6): significantly higher than that of the control wounds
- % decrease in wound size (wound area day 6 compared with day 0) ([2]; day 6): 41.6±15.0%
- wound with the greatest decrease in size ([2]; single wound of the treatment group, day 6): 66.7%
- control wounds showing more percent healing than the SP wound on the same rat (full thickness wound): 4 out of 16
- doses producing a rapid increase in the force of contraction (NK1 receptor [1]; rabbit iris sphincter muscle): greater than 10^−10 M
- maximum effective dose (NK1 receptor [1]; rabbit iris sphincter muscle): 10^−7 M
- factor by which binding to NK1 and NK3 receptors differs (NK1 and NK3 receptors): over 20

Molecule: SEQ ID NO:9: substitution peptide where norleucine has been substituted for the C-terminus methionine in Substance P (RPKPQQFFGLX; (11)..(11) Norleucine; listed as Homo sapiens)
- cellular growth promoting activity (cellular growth): enhanced activity under at least some treatment conditions
